Measurements taken from patent US20050282755A1, “Compositions having antimicrobial activity and uses thereof” (priority 2004, published 2005).
Values after ≈ are worked out from the molar mass of the structure shown. Non-standard residues stand in square brackets, D forms with d. Residues, ends and D or L forms follow the SMILES beside them. *: point of attachment. Palmitoyl = CCCCCCCCCCCCCCCC(=O)*; Lauroyl = CCCCCCCCCCCC(=O)*

Columns and labels:
Format in all cases: cell-based
[1] = system: Staphylococcus aureus ATCC 29213; assay: MIC, NCCLS M7-A6 broth microdilution, cation-adjusted Mueller Hinton broth (Table 9, no superscript); conditions: ATCC 29213
Outline: (§1)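 Values come from a broth microdilution assay run in cation-adjusted Mueller Hinton broth with an inoculum of 5×10^5 to 1×10^6 CFU/milliliter, incubated overnight at 37° C and read as absence of visible turbidity.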

[2] = system: Staphylococcus epidermidis ATCC 12228; assay: MIC, NCCLS M7-A6 broth microdilution (Table 9, no superscript); conditions: ATCC 12228
Outline: as §1

[3] = system: Pseudomonas aeruginosa ATCC 27853; assay: as above; conditions: ATCC 27853
Outline: as §1

[4] = system: Escherichia coli ATCC 25922; assay: as above; conditions: ATCC 25922
Outline: as §1

Salmonella dublin (Lane) = assay: as above
Outline: as §1

CCCCCCCCCCCC(=O)N[C@H](CCCNC(=N)N)C(=O)N[C@H](CO)C(=O)N[C@H](C)C(=O)N[C@H](Cc1c[nH]c2ccccc12)C(=O)N[C@H](CCCNC(=N)N)C(=O)N[C@H](CC(=O)O)C(=O)N[C@@H](C(=O)N[C@H](C)C(=O)N[C@H](CCCNC(=N)N)C(=O)N[C@H](CC(N)=O)C(=O)N[C@H](Cc1ccccc1)C(=O)N[C@H](CCSC)C(=O)N[C@H](CCCNC(=N)N)C(N)=O)C(C)C [Peptide 228, Lauryl-rsawrdvarnfmr-NH2] (Lauroyl-[dR][dS][dA][dW][dR][dD][dV][dA][dR][dN][dF][dM][dR]-NH2)
MIC S. aureus [1]: 64 µg/mL (≈ 34.7 µM) | MIC S. epidermidis [2]: 16 µg/mL (≈ 8.67 µM) | MIC P. aeruginosa [3]: >64 µg/mL | MIC E. coli [4]: >64 µg/mL | MIC S. dublin (Salmonella dublin (Lane)): 64 µg/mL (≈ 34.7 µM)

CCCCCCCCCCCC(=O)N[C@H](CCCNC(=N)N)C(=O)N[C@H](CO)C(=O)N[C@H](CCCNC(=N)N)C(=O)N[C@H](Cc1c[nH]c2ccccc12)C(=O)N[C@H](C)C(=O)N[C@H](CC(=O)O)C(=O)N[C@@H](C(=O)N[C@H](C)C(=O)N[C@H](CCCNC(=N)N)C(=O)N[C@H](CC(N)=O)C(=O)N[C@H](Cc1ccccc1)C(=O)N[C@H](CCSC)C(=O)N[C@H](CCCNC(=N)N)C(N)=O)C(C)C [Peptide 229, Lauryl-rsrwadvarnfmr-NH2] (Lauroyl-[dR][dS][dR][dW][dA][dD][dV][dA][dR][dN][dF][dM][dR]-NH2)
MIC S. aureus [1]: 8 µg/mL (≈ 4.33 µM) | MIC S. epidermidis [2]: 4 µg/mL (≈ 2.17 µM) | MIC P. aeruginosa [3]: 8 µg/mL (≈ 4.33 µM) | MIC E. coli [4]: 8 µg/mL (≈ 4.33 µM) | MIC S. dublin (Salmonella dublin (Lane)): 8 µg/mL (≈ 4.33 µM)

CCCCCCCCCCCC(=O)N[C@H](CCCNC(=N)N)C(=O)N[C@H](CO)C(=O)N[C@H](CCCNC(=N)N)C(=O)N[C@H](Cc1c[nH]c2ccccc12)C(=O)N[C@H](CCCNC(=N)N)C(=O)N[C@H](CC(=O)O)C(=O)N[C@@H](C(=O)N[C@H](C)C(=O)N[C@H](C)C(=O)N[C@H](CC(N)=O)C(=O)N[C@H](Cc1ccccc1)C(=O)N[C@H](CCSC)C(=O)N[C@H](CCCNC(=N)N)C(N)=O)C(C)C [Peptide 230, Lauryl-rsrwrdvaanfmr-NH2] (Lauroyl-[dR][dS][dR][dW][dR][dD][dV][dA][dA][dN][dF][dM][dR]-NH2)
MIC S. aureus [1]: >64 µg/mL | MIC S. epidermidis [2]: 4 µg/mL (≈ 2.17 µM) | MIC P. aeruginosa [3]: >64 µg/mL | MIC E. coli [4]: >64 µg/mL | MIC S. dublin (Salmonella dublin (Lane)): >64 µg/mL

CCCCCCCCCCCC(=O)N[C@H](CCCNC(=N)N)C(=O)N[C@H](CO)C(=O)N[C@H](CCCNC(=N)N)C(=O)N[C@H](Cc1c[nH]c2ccccc12)C(=O)N[C@H](CCCNC(=N)N)C(=O)N[C@H](CC(=O)O)C(=O)N[C@@H](C(=O)N[C@H](C)C(=O)N[C@H](CCCNC(=N)N)C(=O)N[C@H](CC(N)=O)C(=O)N[C@H](Cc1ccccc1)C(=O)N[C@H](CCSC)C(=O)N[C@H](C)C(N)=O)C(C)C [Peptide 231, Lauryl-rsrwrdvarnfma-NH2] (Lauroyl-[dR][dS][dR][dW][dR][dD][dV][dA][dR][dN][dF][dM][dA]-NH2)
MIC S. aureus [1]: 32 µg/mL (≈ 17.3 µM) | MIC S. epidermidis [2]: 4 µg/mL (≈ 2.17 µM) | MIC P. aeruginosa [3]: 32 µg/mL (≈ 17.3 µM) | MIC E. coli [4]: >64 µg/mL | MIC S. dublin (Salmonella dublin (Lane)): >64 µg/mL

CCCCCCCCCCCC(=O)N[C@H](CCCNC(=N)N)C(=O)N[C@H](CO)C(=O)N[C@H](CCCNC(=N)N)C(=O)N[C@H](CO)C(=O)N[C@H](CCCNC(=N)N)C(=O)N[C@H](CC(=O)O)C(=O)N[C@@H](C(=O)N[C@H](C)C(=O)N[C@H](CCCNC(=N)N)C(=O)N[C@H](CC(N)=O)C(=O)N[C@H](Cc1ccccc1)C(=O)N[C@H](CCSC)C(=O)N[C@H](CCCNC(=N)N)C(N)=O)C(C)C [Peptide 232, Lauryl-rsrsrdvarnfmr-NH2] (Lauroyl-[dR][dS][dR][dS][dR][dD][dV][dA][dR][dN][dF][dM][dR]-NH2)
MIC S. aureus [1]: >64 µg/mL | MIC S. epidermidis [2]: 16 µg/mL (≈ 8.73 µM) | MIC P. aeruginosa [3]: >64 µg/mL | MIC E. coli [4]: >64 µg/mL | MIC S. dublin (Salmonella dublin (Lane)): >64 µg/mL

CCCCCCCCCCCC(=O)N[C@H](CCCNC(=N)N)C(=O)N[C@H](CO)C(=O)N[C@H](CCCNC(=N)N)C(=O)N[C@H](Cc1c[nH]c2ccccc12)C(=O)N[C@H](CCCNC(=N)N)C(=O)N[C@H](CC(=O)O)C(=O)N[C@@H](C(=O)N[C@H](C)C(=O)N[C@H](CCCNC(=N)N)C(=O)N[C@H](CC(N)=O)C(=O)N[C@H](CO)C(=O)N[C@H](CCSC)C(=O)N[C@H](CCCNC(=N)N)C(N)=O)C(C)C [Peptide 234, Lauryl-rsrwrdvarnsmr-NH2] (Lauroyl-[dR][dS][dR][dW][dR][dD][dV][dA][dR][dN][dS][dM][dR]-NH2)
MIC S. aureus [1]: 64 µg/mL (≈ 34.2 µM) | MIC S. epidermidis [2]: 16 µg/mL (≈ 8.55 µM) | MIC P. aeruginosa [3]: >64 µg/mL | MIC E. coli [4]: >64 µg/mL | MIC S. dublin (Salmonella dublin (Lane)): 64 µg/mL (≈ 34.2 µM)

CCCCCCCCCCCC(=O)N[C@H](CCCNC(=N)N)C(=O)N[C@H](CO)C(=O)N[C@H](CCCNC(=N)N)C(=O)N[C@H](Cc1c[nH]c2ccccc12)C(=O)N[C@H](CCCNC(=N)N)C(=O)N[C@H](CC(=O)O)C(=O)N[C@@H](C(=O)N[C@H](C)C(=O)N[C@H](CCCNC(=N)N)C(=O)N[C@H](CC(N)=O)C(=O)N[C@H](Cc1ccccc1)C(=O)N[C@H](CO)C(=O)N[C@H](CCCNC(=N)N)C(N)=O)C(C)C [Peptide 235, Lauryl-rsrwrdvarnfsr-NH2] (Lauroyl-[dR][dS][dR][dW][dR][dD][dV][dA][dR][dN][dF][dS][dR]-NH2)
MIC S. aureus [1]: 16 µg/mL (≈ 8.48 µM) | MIC S. epidermidis [2]: 8 µg/mL (≈ 4.24 µM) | MIC P. aeruginosa [3]: 64 µg/mL (≈ 33.9 µM) | MIC E. coli [4]: 16 µg/mL (≈ 8.48 µM) | MIC S. dublin (Salmonella dublin (Lane)): 32 µg/mL (≈ 17 µM)

CCCCCCCCCCCC(=O)N[C@H](C)C(=O)N[C@H](CO)C(=O)N[C@H](CCCNC(=N)N)C(=O)N[C@H](Cc1c[nH]c2ccccc12)C(=O)N[C@H](CCCNC(=N)N)C(=O)N[C@H](CC(=O)O)C(=O)N[C@@H](C(=O)N[C@H](C)C(=O)N[C@H](CCCNC(=N)N)C(=O)N[C@H](CC(N)=O)C(=O)N[C@H](Cc1ccccc1)C(=O)N[C@H](CCSC)C(=O)N[C@H](CCCNC(=N)N)C(N)=O)C(C)C [Peptide 236, Lauryl-asrwrdvarnfmr-NH2] (Lauroyl-[dA][dS][dR][dW][dR][dD][dV][dA][dR][dN][dF][dM][dR]-NH2)
MIC S. aureus [1]: 32 µg/mL (≈ 17.3 µM) | MIC S. epidermidis [2]: 16 µg/mL (≈ 8.67 µM) | MIC P. aeruginosa [3]: >64 µg/mL | MIC E. coli [4]: 64 µg/mL (≈ 34.7 µM) | MIC S. dublin (Salmonella dublin (Lane)): >64 µg/mL

CCCCCCCCCCCC(=O)N[C@H](CCCNC(=N)N)C(=O)N[C@H](Cc1c[nH]c2ccccc12)C(=O)N[C@H](CCCNC(=N)N)C(=O)N[C@H](CC(=O)O)C(=O)N[C@H](CC(C)C)C(=O)N[C@H](C)C(=O)N[C@H](CCCNC(=N)N)C(N)=O [Peptide 244, Lauryl-rwrdlar-NH2] (Lauroyl-[dR][dW][dR][dD][dL][dA][dR]-NH2)
MIC S. aureus [1]: 32 µg/mL (≈ 27.7 µM) | MIC S. epidermidis [2]: 64 µg/mL (≈ 55.5 µM) | MIC P. aeruginosa [3]: >64 µg/mL | MIC E. coli [4]: 64 µg/mL (≈ 55.5 µM) | MIC S. dublin (Salmonella dublin (Lane)): >64 µg/mL

CCCCCCCCCCCCCCCC(=O)N[C@H](CCCNC(=N)N)C(=O)N[C@H](CO)C(=O)N[C@H](CCCNC(=N)N)C(=O)N[C@H](Cc1c[nH]c2ccccc12)C(=O)N[C@H](CCCNC(=N)N)C(=O)N[C@H](CC(=O)O)C(=O)N[C@@H](C(=O)N[C@H](C)C(=O)N[C@H](CCCNC(=N)N)C(=O)N[C@H](CC(N)=O)C(=O)N[C@H](Cc1ccccc1)C(=O)N[C@H](CC(C)C)C(=O)N[C@H](CCCNC(=N)N)C(N)=O)C(C)C [Peptide 254, Palmityl-rsrwrdvarnflr-NH2] (Palmitoyl-[dR][dS][dR][dW][dR][dD][dV][dA][dR][dN][dF][dL][dR]-NH2)
MIC S. aureus [1]: 32 µg/mL (≈ 16.2 µM) | MIC S. epidermidis [2]: 4 µg/mL (≈ 2.03 µM) | MIC P. aeruginosa [3]: 64 µg/mL (≈ 32.5 µM) | MIC E. coli [4]: >64 µg/mL | MIC S. dublin (Salmonella dublin (Lane)): >64 µg/mL
